Reference: article PMC4977052, “On the Utility of ToxCast™ and ToxPi as Methods for Identifying New Obesogens” (Environmental Health Perspectives, 2016)
Like-named read-outs stand apart in the source and are kept apart here.

How the values were obtained:
[1] = tested on: PPARγ; conditions: cited from earlier work
[2] = tested on: PPARγ; conditions: ToxCast 2014 release, ref Filer et al. 2014, cited from earlier work
[3] = tested on: Human PPARγ; conditions: cited from earlier work
[4] = biological target: T1, GAL4-mPPARγ (Mus musculus, UniProt P37238); assay: GAL4-mPPARγ activation, transient transfection luciferase reporter in COS7 cells; type: cell-based
T1 construct: expressed in transfected cells; host or cells: COS7
Protocol: pCMX-Gal4, pCMX-Gal4-mPPARγ, and pCMX-Gal4-hRXRα were previously described ([Grün et al. 2006]). Transient transfections were performed in COS7 cells as described ([Chamorro-García et al. 2012]). Briefly, COS7 cells were seeded at 15,000 cells per well in 96-well tissue culture plates in 10% calf bovine serum. The following day, cells were transfected in Opti-MEM at ~ 90% confluency. One microgram of CMX-GAL4 effector plasmid was co-transfected with 5 μg tk-(MH100)4-luciferase reporter and 5 μg of CMX-β-galactosidase transfection control plasmids in Opti-MEM® using Lipofectamine® 2000 reagent (Invitrogen™ Life Technologies, Carlsbad, CA, USA), following the manufacturer’s recommended protocol. All chemicals were solvated in dimethyl sulfoxide (DMSO). After overnight incubation, the medium was replaced with Dulbecco’s Modified Eagle Medium (DMEM; HyClone, Logan, UT, USA), 10% resin charcoal stripped fetal bovine serum (FBS) plus ligands at concentrations indicated in the figure legends for an additional 24 hr. DMSO concentration was maintained at 0.05% across all chemical treatments. Cells were lysed and assayed for luciferase and β-galactosidase activity as previously described ([Forman et al. 1995]). All transfections were performed in triplicate and reproduced in multiple experiments. Data are reported as fold induction or reduction over vehicle ([…]) controls ± SEM (standard error of the mean) using standard propagation of error ([Bevington and Robinson 2003]). […] The EC50, EC10, IC50, and IC10 values from NCGC and ToxCast™ are reported from gain AC50 and AC10 values in the ToxCast™ 2014 release ([Filer et al. 2014]).
Figure 1 ToxCast™ Chemical Activity on PPARγ. The ability of a graded dose series of ToxCast™ chemicals to (A) activate or (B) antagonize GAL4-mPPARγ was tested in transiently transfected COS7 cells. (A, B) Data points are averages of triplicate transfections (three biological replicates). […] Data are depicted as (A) fold induction or (B) reduction over vehicle (0.05% DMSO) controls ± SEM. (A) ToxCast™ chemicals were tested in 3-fold serial dilutions from 100 μM through 0.137 μM, with the final data point being 0.05% DMSO. Rosiglitazone serves as a positive control activator. (B) ToxCast™ chemicals were tested in 3-fold serial dilutions from 100 μM, in competition with 50 nM rosiglitazone (Rosi). […] (C) EC50, EC10, IC50, and IC10 values calculated from A and B are reported and compared to commercial assays (see Figure S1). Note: ATG, Attagene GAL-PPARγ activation assay; NCGC, GeneBLAzer® agonist (EC values) or antagonist (IC values) assays. Triphenyltin was previously published ([Kanayama et al. 2005]).
Figure 4 ToxPi Chemical Activity on PPARγ and RXRα. The ability of a graded dose series of ToxPi chemicals to activate (A) GAL4-mPPARγ or (B) GAL4-hRXRα was tested in transiently transfected COS7 cells. (A, B) Data points are averages of triplicate transfections (three biological replicates). […] ToxPi chemicals were tested in 3-fold serial dilutions from 100 μM through 0.137 μM, with the final data point being 0.05% DMSO. Data are depicted as fold induction over vehicle (0.05% DMSO) controls ± SEM. (A) Rosiglitazone serves as a positive control activator for GAL4-mPPARγ. (B) LG100268 (2-[1-(3,5,5,8,8-Pentamethyl-5,6,7,8-tetrahydro-2-naphthyl)cyclopropyl]pyridine-5-carboxylic acid) serves as a positive control activator for GAL4-hRXRα. (C) EC50 and EC10 values calculated from A and B are reported and compared to other assays (see Figure S1). ATG, Attagene GAL-PPARγ or GAL-RXRα activation assay; NCGC, GeneBLAzer® GAL-PPARγ or GAL-RXRα activation assays. Triphenyltin was previously published ([Kanayama et al. 2005]).

[5] = tested on: 3T3-L1 preadipocytes; assay: 3T3-L1 adipogenesis assay (lipid accumulation, adipogenic gene expression); type: cell-based; conditions: 0.02-20 μM, 5 days after MDI induction
Protocol: 3T3-L1 cells (ATCC) were maintained in high-glucose DMEM supplemented with 10% fetal bovine serum, 2 mM L-glutamine, 50 IU/mL penicillin, and 50 μg/mL streptomycin. A total of 2 × 10^4 cells per well were seeded in 12-well plates. After 48 hr, cells were exposed to the adipogenic cocktail MDI (500 μM isobutylmethylxanthine, 0.25 nM dexamethasone and 5 μg/mL insulin), 8 μg/mL biotin and 8 μg/mL pantothenate for 2 days. Induction media was removed and cells were exposed to test chemicals during 5 days, replacing the media every 2 days. Rosiglitazone (ROSI) and tributyltin (TBT) were used as positive controls at 100 nM and 50 nM final concentrations, respectively. All ToxCast™ chemicals were tested at 0.02, 0.2, 2, and 20 μM, and DMSO concentration was maintained at 0.1% across all treatments. If the chemical was toxic at 20 μM, we repeated the experiment at 10 μM.
Cells were either fixed in 3.7% formaldehyde in phosphate-buffered saline (PBS) for 30 min at room temperature (RT) for lipid quantitation, or homogenized in TriPure (Roche, Mannheim, Germany) for gene expression analysis. For lipid quantitation, fixed cells were washed twice with PBS and maintained in PBS overnight at 4°C to release residual phenol red. Background of cells were measured prior to staining. Cells were stained with 1 μg/mL Nile red (CAS No. 7385-67-3) (to detect lipid accumulation) and 1 μg/mL Hoechst 33342 (ThermoFisher Scientific) (to detect nuclei as a surrogate for cell number) in PBS for 15 min in the dark at RT and washed twice with PBS. […] Background values of Hoechst and Nile red were subtracted from the RFUs after staining and the ratio RFUNile Red:RFUHoechst was calculated. Data are represented as mean ± SEM. Total RNA was isolated using TriPure (Roche) as recommended by the manufacturer. Reverse transcription and quantitative real-time RT-PCR (QPCR) were performed using Transcriptor RT and SYBR® Green Master Mix (Roche). cDNA was quantitated in a LightCycler® 480 System (Roche Diagnostics, Basel, Switzerland) using primer sets listed in Table S4. Each primer set amplified a single band as determined by gel electrophoresis and melting curve analysis. QPCR data were analyzed using the 2^ΔΔCt method ([Livak and Schmittgen 2001]) relative to ribosomal protein 36b4, normalizing to 0.1% DMSO vehicle. Error bars represent the SEM from four to six biological replicates calculated using standard propagation of error ([Bevington and Robinson 2003]).

[6] = ToxCast 2014 release, ref Filer et al. 2014, read-out: Attagene AC50 (panel B, with Z-Score Correction ranking)
[7] = read-out: Tox21/NCGC AC50 (panel B)
[8] = ToxCast 2014 release, ref Filer et al. 2014, read-out: Attagene AC50 (panel A, w/o Z-Score Correction ranking)
[9] = direct binding, ToxCast 2014 release, ref Filer et al. 2014, read-out: NovaScreen AC50 (panel A)
[10] = direct binding, ToxCast 2014 release, ref Filer et al. 2014, read-out: NovaScreen AC50 (panel B)
[11] = read-out: Tox21/NCGC AC50 (panel A)
[12] = Cos-7 transient transfection, PPARγ or RXRα activation assays (Table 2)

T1 sequence (P37238 with tags, fused parts or gaps limits assumed): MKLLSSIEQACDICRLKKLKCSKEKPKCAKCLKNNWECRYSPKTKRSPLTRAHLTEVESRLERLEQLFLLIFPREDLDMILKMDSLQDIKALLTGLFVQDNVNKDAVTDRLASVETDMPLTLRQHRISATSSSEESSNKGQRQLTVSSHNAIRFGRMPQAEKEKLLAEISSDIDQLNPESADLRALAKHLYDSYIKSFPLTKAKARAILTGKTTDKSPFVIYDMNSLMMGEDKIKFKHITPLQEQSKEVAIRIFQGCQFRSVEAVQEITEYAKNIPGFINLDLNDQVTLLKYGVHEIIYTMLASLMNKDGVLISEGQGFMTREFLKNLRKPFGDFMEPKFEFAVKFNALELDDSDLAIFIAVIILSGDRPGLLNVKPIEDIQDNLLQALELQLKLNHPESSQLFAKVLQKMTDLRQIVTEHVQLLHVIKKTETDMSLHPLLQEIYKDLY

Row | SMILES | AC50 [1, 6] | AC50 [1, 8] | AC50 [3, 9] | AC50 [3, 10] | AC50 [2, 11] | further results
1 | O=C(O)CCCOc1ccc(Cl)cc1Cl [2,4-DB] | 33.4 µM |  |  |  |  | AC50 [2, 7]: 16.7 µM
2 | Oc1ccccc1-c1ccccc1 [2-Phenylphenol] | 0.1 µM | 0.1 µM | 1.1 µM | 1.1 µM |  | 
3 | C/C(=N\C#N)N(C)Cc1ccc(Cl)nc1 [Acetamiprid] |  |  |  |  |  | Activation COS7 (result in words), ToxPi chemicals [4]: Inactive; Adipogenesis 3T3-L1 (result in words) [5]: Positive; Adipogenesis 3T3-L1 (result in words) ([5]; listed as acetamiprid): promoted adipogenesis
4 | O=C(O)c1cc(Oc2ccc(C(F)(F)F)cc2Cl)ccc1[N+](=O)[O-] [Acifluorfen] | 37.1 µM |  |  | 13.5 µM |  | 
5 | CCNc1nc(NC(C)C)nc(SC)n1 [Ametryn] |  | 15.1 µM | 31.8 µM |  | 10.2 µM | 
6 | COC(=O)NS(=O)(=O)c1ccc(N)cc1 [Asulam] |  |  |  |  |  | Activation COS7 (result in words), ToxPi chemicals [4, 12]: Inactive; Adipogenesis 3T3-L1 (result in words) [5]: Negative
7 | CCOc1nc(F)cc2nc(S(=O)(=O)Nc3c(Cl)cccc3Cl)nn12 [Diclosulam] | 26.3 µM |  |  |  |  | AC50 [2, 7]: 2.9 µM
8 | CCOP(=S)(OCC)SCCSCC [Disulfoton] | 81.8 µM |  |  | 1.6 µM |  | 
9 | CCCSP(=O)(OCC)SCCC [Ethoprop] |  |  |  |  |  | AC50 ([1]; read-out: Attagene AC50 (panel B, with Z-Score Correction ranking)): 114 µM; AC50 ([3]; read-out: NovaScreen AC50 (panel B)): 3.9 µM
10 | CCOP(=O)(NC(C)C)Oc1ccc(SC)c(C)c1 (stereo not shown) [Fenamiphos] | 35.1 µM | 35.1 µM | 21.2 µM | 21.2 µM | 14.7 µM | AC50 [2, 7]: 14.7 µM
11 | N#Cc1nn(-c2c(Cl)cc(C(F)(F)F)cc2Cl)c(N)c1[S+]([O-])C(F)(F)F (stereo not shown) [Fipronil] |  | 39.3 µM |  |  |  | 
12 | CCCCOC(=O)C(C)Oc1ccc(Oc2ccc(C(F)(F)F)cn2)cc1 (stereo not shown) [Fluazifop-butyl] | 2.8 µM |  |  | 0.7 µM |  | 
13 | Cc1ccn2nc(S(=O)(=O)Nc3c(F)cccc3F)nc2n1 [Flumetsulam] |  |  |  |  |  | Activation COS7 (result in words), ToxPi chemicals [4, 12]: Inactive; Adipogenesis 3T3-L1 (result in words) [5]: Negative
14 | CC(C)Oc1cccc(NC(=O)c2ccccc2C(F)(F)F)c1 [Flutolanil] |  | 8.5 µM | 10.3 µM |  | 34.1 µM | 
15 | CCCCC(O)(Cn1cncn1)c1ccc(Cl)cc1Cl (stereo not shown) [Hexaconazole] |  | 1.2 µM | 0.3 µM |  | 0.1 µM | 
16 | CC(C)NC(=O)N1CC(=O)N(c2cc(Cl)cc(Cl)c2)C1=O [Iprodione] | 20.9 µM | 20.9 µM | 2.4 µM | 2.4 µM | 45.5 µM | AC50 [2, 7]: 45.5 µM
17 | CS(=O)(=O)c1cc(C(F)(F)F)ccc1C(=O)c1cnoc1C1CC1 [Isoxaflutole] | 10.4 µM |  |  |  |  | AC50 [2, 7]: 26.4 µM
18 | CCCCOC(=O)c1ccccc1C(=O)O [MBP] | 18.2 µM |  |  | 0.1 µM |  | 
19 | Cc1cc(Cl)ccc1OCC(=O)O [MCPA] | 33.8 µM | 33.8 µM | 0.1 µM | 0.1 µM | 253 µM | AC50 [2, 7]: 253 µM
21 | O=c1ccc(=O)[nH][nH]1 [Maleic hydrazide] |  |  |  |  |  | Activation COS7 (result in words), ToxPi chemicals [4, 12]: Inactive; Adipogenesis 3T3-L1 (result in words) [5]: Negative
22 | COc1nn(CSP(=S)(OC)OC)c(=O)s1 [Methidathion] | 30.6 µM | 30.6 µM | 0.1 µM | 0.1 µM |  | 
23 | CCSC(=O)N1CCCCCC1 [Molinate] | 41.3 µM |  |  | 0.1 µM |  | 
24 | O=C(O)c1c(Cl)ccc2cc(Cl)cnc12 [Quinclorac] | 0.03 µM |  |  | 0.0002 µM |  | 
25 | C=CCC1=C(C)[C@@H](OC(=O)[C@@H]2[C@@H](C=C(C)C)C2(C)C)CC1=O [S-Bioallethrin] |  |  |  |  |  | Activation COS7 (result in words), ToxCast PPARγ list ([4]; Cos-7 transient transfection, PPARγ activation or antagonism assays (Table 1, Table S6)): Inactive; AC50 ([1]; PPARγ, NA = not active, ref Filer et al. 2014, read-out: ATG Agonist AC50, 2014 Release): 9.2 µM; AC50 ([1]; PPARγ, NA = not active, ref Knudsen et al. 2011, read-out: ATG Agonist AC50, 2011 Release): 9.2 µM
26 | CCNc1nc(Cl)nc(NCC)n1 [Simazine] | 116 µM |  |  | 1.5 µM |  | 
27 | CC(C)=CC1C(C(=O)OCN2C(=O)C3=C(CCCC3)C2=O)C1(C)C (stereo not shown) [Tetramethrin] |  | 0.02 µM | 0.3 µM |  | 21.6 µM | 
28 | COP(=O)(OC)C(O)C(Cl)(Cl)Cl (stereo not shown) [Trichlorfon] |  | 58.4 µM |  |  | 0.05 µM | 
29 | O=C(O)COc1nc(Cl)c(Cl)cc1Cl [Triclopyr] | 54.7 µM | 54.7 µM | 2.1 µM | 2.1 µM | 41.5 µM | AC50 [2, 7]: 41.5 µM
30 | Oc1cc(Cl)ccc1Oc1ccc(Cl)cc1Cl [Triclosan] |  | 8.6 µM | 7.1 µM |  | 25.8 µM | Activation of GAL4-PPARγ (text) ([4]; COS7, 100 μM through 0.137 μM): inactive
